Read-outs that look alike come from different tables or passages of the source.
Key:
Assay type in all cases: cell-based
[1] = system: HIV-1IIIB; experiment: Inhibition test on HIV-1IIIB induced cytopathic effect (syncytium formation) of C8166; conditions: for EC50: Human immunodeficiency virus 1, C8166, 72 h, HIV-1IIIB in C8166 cells, 3 days; for Therapeutic index (TI): TI=CC50/EC50; for anti-HIV-1 activity (in words): comment on Table 1, relative to Compound 5
Procedure: Inhibition Test of the Compounds 5-12 Obtained in the Above Examples on HIV-1IIIB Induced Cytopathic Effect (CPE) of C8166 8×10^5/mL C8166 cell suspension was inoculated in 50 μL/well into a 96-well cell culture plate containing compound diluted in multiple proportions in 100 μL/well, to which was then added 50 μL of HIV-1IIIB diluted supernatant (M.O.I. 0.0016). Set three repeated wells, at the same time, set normal cell control wells that are free of the compound. Culture was conducted at 37° C. and 5% CO2 for three days. Syncytium formation was counted using an inverted microscope (100×). EC50 (50% Effective Concentration), i.e., the concentration of the compound that inhibits 50% syncytium formation, was calculated. Calculation method and formula: dose-response curve was plotted according to the experimental results; according to Reed & Muench method, 50% effective concentration (EC50) to inhibit viruses, 50% Cytotoxic Concentration (CC50) and anti-HIV-1 activity in the Therapeutic Index (TI) were calculated according to the formula: TI=CC50/EC50.

[2] = system: C8166 cells; experiment: Cytotoxicity test on C8166 host cell (MTT colorimetry); conditions: 3 days
Procedure: (§1) Cytotoxicity Test of the Compounds 5-12 Obtained in the Above Examples on C8166 Host Cell 100 μL of 4×10^5/mL C8166 cell suspension was mixed with different candidate compound solutions. Set three repeated wells. Meanwhile, set compound-free control wells. Culture was conducted at 37° C. and 5% CO2 for three days. Cell toxicity was tested using MTT colorimetry. OD value was tested using ELX800 ELISA instrument, with the measurement wavelength of 595 nm and the reference wavelength of 630 nm. […] Calculation method and formula: dose-response curve was plotted according to the experimental results; according to Reed & Muench method, 50% effective concentration (EC50) to inhibit viruses, 50% Cytotoxic Concentration (CC50) and anti-HIV-1 activity in the Therapeutic Index (TI) were calculated according to the formula: TI=CC50/EC50.

[3] = as above; conditions: human, C8166 cells (T lymphocyte cell line)
Procedure: as §1

[4] = read-out: Syncytia inhibition (EC50) 2
[5] = read-out: Syncytia inhibition (EC50) 1

Compound | EC50 [1, 4] [µg/mL] | EC50 [1, 5] [µM] | Therapeutic index (TI) [1] | anti-HIV-1 activity (in words) [1] | toxicity (CC50) 2 [2] [µg/mL] | CC50 at 3 days ([3]; read-out: toxicity (CC50) 1) [µM] | CC50 at 3 days ([3]; read-out: toxicity (CC50) 2) [µg/mL]
COC(=O)c1cc2c(c(OC)c1-c1ccc(N(C)C)cc1)OCO2 [Compound 5] | 0.14 |  | >2840.91 | very significant anti-HIV-1 activity | ≥ 411.41 |  | 
COC(=O)c1cc2c(c(OC)c1-c1ccc(N(c3ccccc3)c3ccccc3)cc1)OCO2 [Compound 8] | 0.28 | 0.93 | 862.52 |  |  | 802 | 245
COc1c2c(cc(C(=O)O)c1-c1ccc(N(C)C)cc1)OCO2 [Compound 9] | ≥ 7.88 | > 25 | <25.97 | activity declined notably |  | 649 | 205
COC(=O)c1cc2c(c(OC)c1-c1ccc([N+](C)(C)Cc3ccccc3)cc1)OCO2.[Br-] [Compound 12] | 3.74 | 7.5 | 7.10 |  |  | 53.3 | 26.6

Further lines, with some results ahead:

EC50 [1, 4] [µg/mL] | EC50 [1, 5] [µM] | Compound | Therapeutic index (TI) [1] | anti-HIV-1 activity (in words) [1] | toxicity (CC50) 2 [2] [µg/mL] | CC50 at 3 days ([3]; read-out: toxicity (CC50) 1) [µM] | CC50 at 3 days ([3]; read-out: toxicity (CC50) 2) [µg/mL]
0.14 | 0.49 | COC(=O)c1cc2c(c(OC)c1-c1ccc(N(C)C)c(C)c1)OCO2 [Compound 6] | >2551.02 |  |  | > 1250 | ≥ 358
0.23 | 0.64 | COC(=O)c1cc2c(c(OC)c1-c1ccc(N3CCOCC3)cc1)OCO2 [Compound 7] | 1376.35 |  |  | 881 | 317
0.15 | 0.42 | COC(=O)c1cc2c(c(OC)c1-c1ccc(N(C)C)cc1)OCO2.Cl [Compound 10] | >2976.19 | activity was increased | ≥ 456.38 |  | 
0.26 |  | Br.COC(=O)c1cc2c(c(OC)c1-c1ccc(N(C)C)cc1)OCO2 [Compound 11] | 114.19 |  | 29.43 |  | 

Source: patent US9328084B2, “Nitrogen-containing biphenyl compounds, pharmaceutical compositions of same, preparation methods and anti-HIV-1 uses thereof” (Kunming Institute of Botany, The Chinese Academy of Sciences, priority 2010, dated 2016)
